Measured values published in patent publication US8440423B2, “Bioremediation of nanomaterials” (U.S. Department of Energy, priority 2007, dated 2013).

Key:
[1] = system: 22 collection strains including E coli, B. subtilis, etc.; conditions: ~43 mg/L; cited from earlier work
Escherichia coli W3110 = assay: Growth of E. coli W3110 in minimal [3-13C]L-lactate medium with nanoparticles added (OD600); assay type: cell-based
Procedure: (§1) Tracer Experiments. Shewanella oneidensis MR-1 and Escherichia coli W3110 were cultured in minimal medium (described in Tang, Y. J. J.; Laidlaw, D.; Gani, K.; Keasling, J. D. Biotechnology and Bioengineering 2006, 95, (1), 176-184) and hereby incorporated by reference). The medium was supplied with 30 mM (98% [3-^13C]L-lactate) (Cambridge Isotope, USA) as the sole carbon source to support cell growth. The inoculum was prepared in LB medium, which was grown overnight. This culture was inoculated into the minimal medium with a 0.09% inoculation volume. Both S. oneidensis and E. coli were cultured in shake flasks at 30° C. (at 200 rpm in dark). The fullerene compounds (C60, C60—OH, C60—COOH and C60-NH2) were added to the medium to different final concentrations (from 1 mg/L to 80 mg/L) before the exponential phase (OD600=0.09˜0.10). The culture's optical density at a wavelength of 600 nm (OD600) was measured in a spectrophotometer (DU®640, Beckman Instruments, Palo Alto, Calif.) every 2-3 hours. The carbon source (lactate) concentrations at each time point were determined using an enzyme test kit (r-Biopharm Inc., Darmstadt, Germany).
We used minimal medium containing [3-^13C]L-lactate to grow both organisms and test the impact of fullerenes (concentrations range from 0˜80 mg/l) on their growth. […]

[2] = system: Shewanella oneidensis MR-1; assay: Growth of S. oneidensis MR-1 in minimal [3-13C]L-lactate medium with nanoparticles added (OD600); assay type: cell-based
Procedure: as §1
We used minimal medium containing [3-^13C]L-lactate to grow both organisms and test the impact of fullerenes (concentrations range from 0˜80 mg/l) on their growth. Since C60 is not soluble in water and cannot be uniformly suspended in the culture solution, we only applied concentrations less than 20 mg/L in the studies of non-derivatized C60.

Solubility in water = assay type: physicochemical
E. coli, and B. subtilis = conditions: up to 5 mg/L; cited from earlier work
mouse skin = conditions: repeating subchronic topical dose on mouse skin for up to 24 weeks; cited from earlier work

c12c3c4c5c1c1c6c7c2c2c8c3c3c9c4c4c%10c5c5c1c1c6c6c%11c7c2c2c7c8c3c3c8c9c4c4c9c%10c5c5c1c1c6c6c%11c2c2c7c3c3c8c4c4c9c5c1c1c6c2c3c41 [C60, C60 fullerene]
Conclusions: effect on 22 collection strains [1]: No effect
E. coli growth course after addition of nanoparticles (Escherichia coli W3110; 20 mg/L and 40 mg/L, FIG. 4a): slowed after addition of nanoparticles, then resumed their normal growth rate
E. coli growth inhibition (Escherichia coli W3110; concentrations up to 80 mg/L (C60 less than 20 mg/L), FIG. 3a): did not significantly inhibit
effect on S. oneidensis MR-1 (growth), summary statement [2]: mild negative effects
S. oneidensis growth course after addition of nanoparticles ([2]; 20 mg/L and 40 mg/L, FIG. 4b): slowed after addition of nanoparticles, then resumed their normal growth rate
S. oneidensis growth inhibition ([2]; concentrations up to 80 mg/L (C60 less than 20 mg/L), FIG. 3b): did not significantly inhibit
solubility in water (Solubility in water): not soluble
Conclusions: effect on growth of prokaryotic microorganisms (E. coli, and B. subtilis): inhibitory to
carcinogenicity (mouse skin): non-carcinogenic
